Here are results for 25 compounds from PubChem BioAssay (NCI).

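Step 1: Grow cells in 96-well plates. Step 2: Expose to compound for 48 hours at 5 concentrations. Step 3: Interpolate endpoints linearly; if unreached, use highest concentration. At the GI50, growth is halved. TGI is the concentration that stops growth completely.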 Where a SMILES comes first, the peptide text is derived from it. The star is where a group is joined. Boc = CC(C)(C)OC(=O)*; OBn = c1ccc(CO*)cc1 A value given as a limit tells only on which side of the number the result lay.

Test in all cases: inhibition of tumour cell growth, NCI panel, 48 h
For assay [1], the system named is A549 NSCLC.
In assay [2] the test system is ACHN renal.
Assay [3] deals with CCRF-CEM leukemia.
Assay [4] has as its system DU-145 prostate.
Assay [5] relates to HCC-2998 colon.
Assay [6] deals with HL-60(TB) leukemia.
For assay [7], the system named is HOP-62 NSCLC.
The test system of assay [8] is PC-3 prostate.
Assay [9] concerns SNB-75 CNS.
Assay [10] has as its system UACC-257 melanoma.

With `Cc1c(NC2(C)C(=O)N(/N=C/c3ccccc3)N=C2c2ccccc2)n[nH]c1-c1ccccc1` (configuration not stated), the TGI in assay [1], in [2], in assay [3], in [4], in assay [5] and in [6] was greater than 100 µM in each case. The TGI in assay [7], in assay [8], in [9] and in [10] was greater than 100 µM throughout.
`CSc1c(C#N)c2n(c3ccccc13)c1ccccc1[n+]2C`: the TGI turned out to be 81.8 µM in [1]; 50.9 µM in assay [2]; 47.6 µM in [3]; 92.6 µM in assay [4]; 64.8 µM in assay [5]; 56.9 µM in assay [6]. The TGI was 52.7 µM in assay [7], 78.5 µM in assay [8], greater than 100 µM in assay [9] and 67.8 µM in [10].
As for `Cc1ccc(SC(=O)N2C(=S)NC(=NC3CCCCC3)C23CCCCC3)cc1`, the TGI in [1], in assay [2], in assay [3], in assay [4], in assay [5] and in assay [6] was greater than 100 µM throughout. Moreover, the TGI in assay [7], in assay [8], in assay [9] and in assay [10] was greater than 100 µM each time.
As to `CC(=O)OCC=C(CCl)CCC(Br)C(C)(C)Br` (mixture of isomers), the TGI in assay [1], in assay [2], in assay [3], in assay [4], in assay [5] and in assay [6] was greater than 10 µM in each case. Further, the TGI in assay [7], in [8], in [9] and in [10] was greater than 10 µM in each case.
For `COc1ccc(C(=O)N2c3ccccc3Sc3ccccc32)c(C(F)(F)F)c1`, the GI50 in assay [1] is 0.515 µM; in assay [2] it was 1.33 µM; in assay [3], 0.0879 µM; in [4], 0.433 µM; in assay [5], 0.467 µM; in [6] it was 0.252 µM. Also, the GI50 was 0.684 µM in [7], 0.426 µM in assay [8], 0.264 µM in [9] and 13.7 µM in assay [10]. For the same compound, the TGI is greater than 100 µM in assay [1]; greater than 100 µM in [2]; greater than 100 µM in assay [3]; greater than 100 µM in assay [4]; 32 µM in assay [5]; 0.793 µM in assay [6]. The TGI in assay [7], in assay [8], in assay [9] and in [10] was greater than 100 µM each time.
As for `CSc1cc(N)ccc1N=Nc1ccc(S(N)(=O)=O)cc1`, the TGI in assay [1] is 71.2 µM; in assay [2], 93 µM; in assay [3], 84.5 µM; in assay [4] it was greater than 100 µM; in [5], greater than 100 µM; in assay [6] it was 82.8 µM. The TGI in assay [7] is 79 µM; in assay [8], greater than 100 µM; in assay [9], 59.8 µM; in [10] it was greater than 100 µM.
As for `CC(=O)N1CCN(C23OC4(N5CCN(C(C)=O)CC5)C5C6CC(C7C6C4C72)C53)CC1` (configuration not stated), the TGI in [1], in assay [2], in [3], in assay [4], in [5] and in [6] was greater than 100 µM each time. Moreover, the TGI in assay [7], in assay [8], in assay [9] and in [10] was greater than 100 µM in each case.
Turning to `CSC1=NS(=O)(=O)c2cc(C(=O)NN(C)C(=O)c3cc4c(cc3Cl)SC(SC)=NS4(=O)=O)c(Cl)cc2S1`, the TGI in [1], in [2], in assay [3], in [4], in [5] and in [6] was greater than 10 µM each time. The TGI in assay [7], in assay [8], in [9] and in assay [10] was greater than 10 µM in each case.
For `CCOC(=O)C(/C=N\C(=S)Nc1ccc(OCC)cc1)=C(/O)c1ccccc1`, the TGI in [1], in assay [2], in assay [3], in [4], in [5] and in [6] was greater than 100 µM in each case. Also, the TGI in assay [7], in [8], in assay [9] and in assay [10] was greater than 100 µM each time.
With `C[C@]12CC[C@@H]3c4ccc(OC(=O)c5ccccc5)cc4CC[C@H]3[C@@H]1CC[C@@H]2Oc1c2ccccc2nc2ccccc12`, the TGI in assay [1] is 13.2 µM; in [2], greater than 50 µM; in assay [3], 21.2 µM; in assay [4], 20.3 µM; in assay [5], 16.9 µM; in [6] it was 40.4 µM. Besides, the TGI in assay [7] worked out at 15.7 µM; in assay [8], 17.7 µM; in assay [9], 18.2 µM; in [10], 38.6 µM.
Consider `NC(N)=NS(=O)(=O)c1ccc(NC(=O)c2ccc3nc4ccccc4c(Nc4ccc(S(N)(=O)=O)cc4)c3c2)cc1`, for which the TGI in assay [1], in assay [2], in assay [3], in [4], in assay [5] and in [6] was greater than 100 µM in each case. Besides, the TGI in assay [7], in assay [8], in [9] and in assay [10] was greater than 100 µM each time.
As for `CC1(COS(=O)(=O)OCC2(C)COS(=O)(=O)OC2)COS(=O)(=O)OC1`, the TGI in assay [1] was greater than 100 µM; in assay [2], greater than 74 µM; in [3] it was greater than 64.4 µM; in assay [4], greater than 88.6 µM; in assay [5] it was greater than 100 µM; in assay [6] it was greater than 58 µM. Besides, the TGI in [7], in assay [8], in assay [9] and in [10] was greater than 100 µM each time.
For `[N-]=[N+]=Nc1ccc(CNc2cc(=O)[nH]c(=O)[nH]2)cc1`, the TGI in [1], in [2], in [3], in assay [4], in assay [5] and in [6] was greater than 100 µM in each case. Further, the TGI in assay [7], in assay [8], in [9] and in assay [10] was greater than 100 µM throughout.
As for `COc1cc(S(=O)(=O)Nc2ccc(-c3csc(N4C(=O)CSC4c4ccccc4)n3)cc2)ccc1Cl` (configuration not stated), the TGI in [1] is greater than 100 µM; in assay [2], greater than 100 µM; in assay [3] it was greater than 100 µM; in assay [4] it was greater than 100 µM; in assay [5] it was 42.4 µM; in assay [6] it was 55.7 µM. The TGI in assay [7], in assay [8], in assay [9] and in assay [10] was greater than 100 µM in each case.
As for `S=C(S)NCC1CCC(CNC(=S)S)CC1` (configuration not stated), the TGI in assay [1] is greater than 100 µM; in [2] it was 39.2 µM; in [3] it was greater than 100 µM; in assay [4], 63.4 µM; in [5], 48.3 µM; in assay [6], greater than 100 µM. The TGI in assay [7] was 42.9 µM; in [8], 37.5 µM; in assay [9], greater than 100 µM; in [10] it was 87.1 µM.
Regarding `Cc1ccc(N=Nc2c(C)c(C#N)c(=S)n(C3OC(CO)C(O)C(O)C3O)c2-c2ccccc2)cc1` (configuration not stated), the TGI in assay [1] is greater than 100 µM; in assay [2], greater than 100 µM; in assay [3], 48.1 µM; in assay [4] it was greater than 100 µM; in assay [5] it was greater than 100 µM; in assay [6] it was greater than 100 µM. For the same compound, the TGI in assay [7] was 54.2 µM; in [8] it was 55.6 µM; in assay [9], 55.2 µM; in assay [10] it was greater than 100 µM.
Take `COc1ccc(OC)c2c1C1CCC(=O)N1CN2C(C)=O` (configuration not stated): the TGI in assay [1], in assay [2], in [3], in [4], in assay [5] and in [6] was greater than 100 µM throughout. In addition, the TGI in assay [7], in assay [8], in assay [9] and in assay [10] was greater than 100 µM throughout.
Consider `CC(C)OP(=O)(OC(C)C)C(C(C)C)N(C)/C(F)=N/C(F)(F)F` (configuration not stated), for which the TGI in assay [1], in assay [2], in [3], in [4], in assay [5] and in [6] was greater than 100 µM in each case. Besides, the TGI in [7], in assay [8], in assay [9] and in assay [10] was greater than 100 µM each time.
In the case of `c1ccc2c(c1)nc1n2CCSC1`, the TGI in assay [1], in assay [2], in assay [3], in [4], in assay [5] and in assay [6] was greater than 100 µM in each case. For the same compound, the TGI in [7], in assay [8], in assay [9] and in assay [10] was greater than 100 µM throughout.
For `O=c1oc2ccc(Cl)cc2cc1-c1cn2cc(Cl)ccc2n1`, the TGI in [1] was greater than 87.8 µM; in [2] it was greater than 100 µM; in [3], greater than 100 µM; in assay [4], greater than 100 µM; in assay [5], greater than 100 µM; in assay [6], greater than 100 µM. Besides, the TGI in assay [7], in [8], in assay [9] and in assay [10] was greater than 100 µM each time.
As for `Cc1ccc(-c2n[nH]c(=O)[nH]2)cc1[N+](=O)[O-]`, the TGI in assay [1], in assay [2], in [3], in assay [4], in assay [5] and in [6] was greater than 100 µM each time. In addition, the TGI in assay [7], in assay [8], in [9] and in [10] was greater than 100 µM throughout.
With `COc1ccc(C2C(C#N)=C(S)N(C3OC(CO)C(O)C(O)C3O)C(c3ccccc3)=C2C(C)=O)cc1` (configuration not stated), the TGI in assay [1], in assay [2], in assay [3], in assay [4], in assay [5] and in assay [6] was greater than 100 µM throughout. Further, the TGI in assay [7] is greater than 100 µM; in assay [8], greater than 100 µM; in assay [9], 97 µM; in [10] it was greater than 100 µM.
On to `CC1(C)Oc2ccc(NC(=O)CCC(N)C(=O)O)cc2O1` (configuration not stated), for which the TGI in assay [1], in assay [2], in assay [3], in [4], in [5] and in assay [6] was greater than 100 µM in each case. In addition, the TGI in assay [7], in [8] and in [9] was greater than 100 µM each time.
In the case of `CC(C)(C)OC(=O)NC(Cc1ccccc1)C(=O)NC(Cc1ccccc1)C(=O)NCC(=O)OCc1ccccc1` (stereo not drawn) (Boc-Phe-Phe-Gly-OBn; configuration not given here), the TGI in assay [2] is greater than 100 µM; in assay [3], 43.1 µM; in [4] it was 33.2 µM; in [5], 29.8 µM; in assay [6] it was 57.6 µM; in [7], 91.7 µM. The figures for the TGI in assay [8], in assay [9] and in assay [10] were 35.8 µM, 59 µM and greater than 100 µM, respectively.
As for `CCCCOCn1c(=O)[nH]c(=O)c2cc(Br)ccc21`, the TGI in assay [1] is greater than 100 µM; in assay [2] it was 42.1 µM; in assay [3], greater than 100 µM; in assay [4], greater than 100 µM; in [5], greater than 100 µM; in assay [6], greater than 100 µM. The TGI in assay [8], in assay [9] and in assay [10] was greater than 100 µM throughout.
